From patent publication US10870647B2, “Imidazopyridine derivative, method for preparing same, and pharmaceutical composition containing same as active ingredient for preventing or treating cancer” (DAEGU-GYEONGBUK MEDICAL INNOVATION FOUNDATION, priority 2016, dated 2020)

Key:
Assay in all cases: Kinase selectivity, scanMAX Kinase assay panel (DiscoverX), % control at 1 uM
Type in all cases: binding
[1] = molecular target: T1, scanMAX Kinase assay panel (Homo sapiens, UniProt Q9HC98); conditions: NEK6; 1 uM; read-out: Percent Control (%)
T1 construct: purchased DiscoverX
Method in brief: (§1)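 A single concentration of 1 uM, in DMSO, is applied across the kinase panel. Activity against an individual enzyme is assigned where % control is less than 35.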

[2] = molecular target: T2, scanMAX Kinase assay panel (Homo sapiens, UniProt Q9HAZ1); conditions: CLK4; 1 uM; read-out: Percent Control (%)
T2 construct: purchased DiscoverX
Method in brief: as §1

[3] = molecular target: T3, scanMAX Kinase assay panel (Homo sapiens, UniProt P19525); conditions: PRKR; 1 uM; read-out: Percent Control (%)
T3 construct: purchased DiscoverX
Method in brief: as §1

[4] = molecular target: T4, scanMAX Kinase assay panel (Homo sapiens, UniProt P51955); conditions: NEK2; 1 uM; read-out: Percent Control (%)
T4 construct: purchased DiscoverX
T4 sequence (P51955 1-445): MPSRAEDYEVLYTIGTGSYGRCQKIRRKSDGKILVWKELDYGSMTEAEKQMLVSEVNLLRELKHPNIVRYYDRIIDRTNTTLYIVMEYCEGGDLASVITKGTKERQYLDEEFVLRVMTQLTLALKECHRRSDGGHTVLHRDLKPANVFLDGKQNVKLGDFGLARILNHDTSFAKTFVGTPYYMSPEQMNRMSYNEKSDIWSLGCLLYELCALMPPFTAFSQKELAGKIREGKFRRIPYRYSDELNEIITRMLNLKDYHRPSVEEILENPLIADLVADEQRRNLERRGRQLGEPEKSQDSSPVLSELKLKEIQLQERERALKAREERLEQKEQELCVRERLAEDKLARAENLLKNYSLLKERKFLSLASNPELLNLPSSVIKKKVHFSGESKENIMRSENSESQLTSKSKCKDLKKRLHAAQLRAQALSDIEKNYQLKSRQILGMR
Method in brief: as §1

[5] = molecular target: T5, scanMAX Kinase assay panel (Homo sapiens, UniProt Q02779); conditions: MLK2; 1 uM; read-out: Percent Control (%)
T5 construct: purchased DiscoverX
Method in brief: as §1

[6] = molecular target: T6, scanMAX Kinase assay panel (Homo sapiens, UniProt O94804); conditions: LOK; 1 uM; read-out: Percent Control (%)
T6 construct: purchased DiscoverX
Method in brief: as §1

[7] = molecular target: T7, scanMAX Kinase assay panel (Homo sapiens, UniProt Q96PY6); conditions: NEK1; 1 uM; read-out: Percent Control (%)
T7 construct: purchased DiscoverX
T7 sequence (Q96PY6 1-1258): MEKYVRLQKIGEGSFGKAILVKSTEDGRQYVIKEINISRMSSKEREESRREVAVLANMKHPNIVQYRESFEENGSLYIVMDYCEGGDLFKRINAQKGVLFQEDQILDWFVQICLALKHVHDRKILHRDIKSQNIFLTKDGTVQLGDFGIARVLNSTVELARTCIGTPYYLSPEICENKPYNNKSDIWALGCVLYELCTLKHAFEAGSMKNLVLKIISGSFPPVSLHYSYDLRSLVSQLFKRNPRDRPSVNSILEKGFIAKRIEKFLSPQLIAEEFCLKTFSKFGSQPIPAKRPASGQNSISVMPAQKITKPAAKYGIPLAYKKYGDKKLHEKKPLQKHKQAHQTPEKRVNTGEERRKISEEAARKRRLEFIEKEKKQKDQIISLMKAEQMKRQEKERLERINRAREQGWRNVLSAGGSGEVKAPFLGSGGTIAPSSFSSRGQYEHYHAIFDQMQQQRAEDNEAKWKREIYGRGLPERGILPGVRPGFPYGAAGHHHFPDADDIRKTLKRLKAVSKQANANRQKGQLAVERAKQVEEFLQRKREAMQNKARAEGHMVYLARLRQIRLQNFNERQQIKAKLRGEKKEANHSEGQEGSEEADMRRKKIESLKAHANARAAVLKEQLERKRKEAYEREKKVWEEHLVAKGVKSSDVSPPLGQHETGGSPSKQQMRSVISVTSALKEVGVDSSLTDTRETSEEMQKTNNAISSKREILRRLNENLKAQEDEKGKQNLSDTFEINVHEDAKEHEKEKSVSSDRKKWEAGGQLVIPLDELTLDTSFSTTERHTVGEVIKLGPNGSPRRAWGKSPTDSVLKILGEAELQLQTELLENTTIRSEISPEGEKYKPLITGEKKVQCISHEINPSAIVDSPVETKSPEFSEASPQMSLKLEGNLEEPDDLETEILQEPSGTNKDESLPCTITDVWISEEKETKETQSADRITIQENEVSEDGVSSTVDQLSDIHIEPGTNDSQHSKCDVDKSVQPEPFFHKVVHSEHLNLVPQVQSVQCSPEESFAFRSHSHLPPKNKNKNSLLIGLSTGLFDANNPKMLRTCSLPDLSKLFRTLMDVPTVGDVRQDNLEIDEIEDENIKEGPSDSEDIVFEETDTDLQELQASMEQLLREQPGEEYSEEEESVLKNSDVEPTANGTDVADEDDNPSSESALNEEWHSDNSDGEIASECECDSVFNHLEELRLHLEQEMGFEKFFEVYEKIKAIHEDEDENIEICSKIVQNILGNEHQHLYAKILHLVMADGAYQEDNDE
Method in brief: as §1

T3 sequence (P19525 whole entry): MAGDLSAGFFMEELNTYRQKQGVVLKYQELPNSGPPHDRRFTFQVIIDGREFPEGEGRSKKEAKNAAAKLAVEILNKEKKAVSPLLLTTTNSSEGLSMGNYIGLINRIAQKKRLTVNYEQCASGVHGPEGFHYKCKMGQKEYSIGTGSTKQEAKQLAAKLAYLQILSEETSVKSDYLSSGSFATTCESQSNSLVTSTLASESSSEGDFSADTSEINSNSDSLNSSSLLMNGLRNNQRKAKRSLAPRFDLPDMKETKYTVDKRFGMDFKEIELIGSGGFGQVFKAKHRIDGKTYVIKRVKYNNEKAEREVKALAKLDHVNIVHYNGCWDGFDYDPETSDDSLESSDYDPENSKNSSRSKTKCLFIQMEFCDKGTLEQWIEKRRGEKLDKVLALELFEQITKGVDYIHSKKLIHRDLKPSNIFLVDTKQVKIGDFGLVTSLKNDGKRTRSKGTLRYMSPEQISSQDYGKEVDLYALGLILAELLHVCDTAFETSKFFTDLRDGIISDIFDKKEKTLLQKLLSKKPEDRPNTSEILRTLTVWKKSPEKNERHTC
T6 sequence (O94804 whole entry): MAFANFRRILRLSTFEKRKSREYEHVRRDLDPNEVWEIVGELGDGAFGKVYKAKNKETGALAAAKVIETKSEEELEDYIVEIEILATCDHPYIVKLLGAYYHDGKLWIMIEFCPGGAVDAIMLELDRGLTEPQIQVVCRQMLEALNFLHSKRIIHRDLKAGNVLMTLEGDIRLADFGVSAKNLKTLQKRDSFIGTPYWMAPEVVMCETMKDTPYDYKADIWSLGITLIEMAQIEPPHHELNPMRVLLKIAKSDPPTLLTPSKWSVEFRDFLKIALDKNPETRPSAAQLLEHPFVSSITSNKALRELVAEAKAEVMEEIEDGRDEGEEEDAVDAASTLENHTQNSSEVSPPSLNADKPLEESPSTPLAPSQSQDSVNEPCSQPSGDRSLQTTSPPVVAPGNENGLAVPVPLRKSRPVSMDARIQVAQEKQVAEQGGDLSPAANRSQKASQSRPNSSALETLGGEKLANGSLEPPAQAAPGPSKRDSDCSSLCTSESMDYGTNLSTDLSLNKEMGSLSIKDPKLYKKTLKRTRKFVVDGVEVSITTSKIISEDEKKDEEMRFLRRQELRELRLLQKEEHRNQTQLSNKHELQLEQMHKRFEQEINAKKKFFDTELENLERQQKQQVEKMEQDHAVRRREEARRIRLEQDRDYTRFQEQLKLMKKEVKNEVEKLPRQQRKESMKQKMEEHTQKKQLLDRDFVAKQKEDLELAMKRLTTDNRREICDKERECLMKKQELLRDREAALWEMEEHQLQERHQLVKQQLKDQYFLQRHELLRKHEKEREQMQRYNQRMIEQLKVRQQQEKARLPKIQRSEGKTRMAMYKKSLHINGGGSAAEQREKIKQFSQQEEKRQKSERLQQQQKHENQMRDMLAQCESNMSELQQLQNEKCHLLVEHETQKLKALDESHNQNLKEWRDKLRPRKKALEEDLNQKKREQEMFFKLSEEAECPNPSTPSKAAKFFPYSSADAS
T2 sequence (Q9HAZ1 whole entry): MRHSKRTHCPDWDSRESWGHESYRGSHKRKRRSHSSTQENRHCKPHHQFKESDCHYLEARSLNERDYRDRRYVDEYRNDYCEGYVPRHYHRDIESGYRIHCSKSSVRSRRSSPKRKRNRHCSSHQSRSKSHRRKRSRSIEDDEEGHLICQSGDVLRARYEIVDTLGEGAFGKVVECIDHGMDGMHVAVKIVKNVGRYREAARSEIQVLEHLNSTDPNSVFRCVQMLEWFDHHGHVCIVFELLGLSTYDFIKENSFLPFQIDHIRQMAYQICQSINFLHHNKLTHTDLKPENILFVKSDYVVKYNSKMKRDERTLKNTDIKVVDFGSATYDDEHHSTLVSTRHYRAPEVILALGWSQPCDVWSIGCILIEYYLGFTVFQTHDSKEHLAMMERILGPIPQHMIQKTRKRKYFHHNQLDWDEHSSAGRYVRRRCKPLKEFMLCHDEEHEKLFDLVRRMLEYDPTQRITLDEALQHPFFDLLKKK
T1 sequence (Q9HC98 whole entry): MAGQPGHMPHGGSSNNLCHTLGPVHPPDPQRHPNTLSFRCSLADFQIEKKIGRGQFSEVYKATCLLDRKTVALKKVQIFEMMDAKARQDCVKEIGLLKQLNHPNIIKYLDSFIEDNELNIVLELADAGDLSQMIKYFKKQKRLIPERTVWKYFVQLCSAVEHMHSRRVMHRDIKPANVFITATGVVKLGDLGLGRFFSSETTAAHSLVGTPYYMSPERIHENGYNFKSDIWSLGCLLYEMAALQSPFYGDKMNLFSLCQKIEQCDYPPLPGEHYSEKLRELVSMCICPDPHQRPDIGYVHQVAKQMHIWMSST
T5 sequence (Q02779 whole entry): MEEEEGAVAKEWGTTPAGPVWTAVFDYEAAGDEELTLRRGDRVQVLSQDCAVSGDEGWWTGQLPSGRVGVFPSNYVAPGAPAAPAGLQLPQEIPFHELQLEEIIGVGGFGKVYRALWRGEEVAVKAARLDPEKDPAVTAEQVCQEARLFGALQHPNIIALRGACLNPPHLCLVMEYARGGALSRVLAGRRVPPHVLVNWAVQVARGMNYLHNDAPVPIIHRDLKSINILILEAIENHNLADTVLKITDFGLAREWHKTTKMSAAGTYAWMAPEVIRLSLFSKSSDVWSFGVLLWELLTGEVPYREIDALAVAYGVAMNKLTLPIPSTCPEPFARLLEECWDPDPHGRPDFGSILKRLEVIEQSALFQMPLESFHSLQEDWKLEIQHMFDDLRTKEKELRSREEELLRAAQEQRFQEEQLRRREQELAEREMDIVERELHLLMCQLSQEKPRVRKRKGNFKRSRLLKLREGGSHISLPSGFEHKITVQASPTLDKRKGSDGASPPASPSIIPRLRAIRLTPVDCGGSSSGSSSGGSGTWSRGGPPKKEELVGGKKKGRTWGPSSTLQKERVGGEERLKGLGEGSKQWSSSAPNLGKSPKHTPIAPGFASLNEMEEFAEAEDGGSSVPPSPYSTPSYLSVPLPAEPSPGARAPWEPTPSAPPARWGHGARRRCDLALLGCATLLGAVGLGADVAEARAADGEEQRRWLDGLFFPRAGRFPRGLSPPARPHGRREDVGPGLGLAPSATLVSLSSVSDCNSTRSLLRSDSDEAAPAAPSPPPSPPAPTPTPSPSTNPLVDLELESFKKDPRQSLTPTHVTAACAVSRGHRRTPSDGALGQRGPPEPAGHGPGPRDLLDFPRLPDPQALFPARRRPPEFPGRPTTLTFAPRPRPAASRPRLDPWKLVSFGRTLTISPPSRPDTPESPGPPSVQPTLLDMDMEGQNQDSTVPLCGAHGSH

| Structure (SMILES) | remaining binding at 1 µM [1] [%] | remaining binding at 1 µM [2] [%] | remaining binding at 1 µM [3] [%] | remaining binding at 1 µM [4] [%] | remaining binding at 1 µM [5] [%] | remaining binding at 1 µM [6] [%] | remaining binding at 1 µM [7] [%] |
| --- | --- | --- | --- | --- | --- | --- | --- |
| Cc1ccc(C(=O)Nc2ccc(CN3CCN(C)CC3)c(C(F)(F)F)c2)cc1C#Cc1cnc2c(Nc3cnn(C)c3)cccn12 [Example 1, 4-methyl-3-((8-((1-methyl-1H-pyrazol-4-yl)amino)imidazo[1,2-a]pyridin-3-yl)ethynyl)-N-(4-((4-methylpiperazin-1-yl)methyl)-3-(trifluoromethyl)phenyl)benzamide] | 65 | 10 | 80 | 80 | 29 | 0 | 52 |
| Cc1cn(-c2cc(NC(=O)c3ccc(C)c(C#Cc4cnc5c(Nc6cnn(C)c6)cccn45)c3)cc(C(F)(F)F)c2)cn1 [Example 12, 4-methyl-N-(3-(4-methyl-1H-imidazol-1-yl)-5-(trifluoromethyl)phenyl)-3-((8-((1-methyl-1H-pyrazol-4-yl)amino)imidazo[1,2-a]pyridin-3-yl)ethynyl)benzamide] | 88 | 100 | 89 | 100 | 48 | 0 | 96 |
| Cc1ccc(NC(=O)C2(C(=O)Nc3ccc(F)cc3)CC2)cc1C#Cc1cnc2c(Nc3cnn(C(C)C)c3)cccn12 [Example 78] | 100 | 100 | 100 | 100 | 94 | 0 | 100 |
